Several values for one entry are separate records, joined by “and”; a condition that tells them apart may be missing. Equal values may be shown once. Read-outs that look alike come from different tables or passages of the source. Marks after values point to notes of the source that are not given here.
Columns and labels:
Nav channels [1] = assay: CBD inhibition of Nav channels; assay type: cell-based; settings: Table 1, from literature CBD values
Nav channels [2] = settings: ref Ghovanloo, Shuart, et al. (2018), cited from earlier work
human Nav1.7 channels [3] = molecular target: T1, human Nav1.7 channels (Homo sapiens, UniProt Q15858); assay: State-dependent inhibition of sodium currents, automated patch-clamp; assay type: cell-based
[4] = system: TTX-resistant Nav current in rat DRG neurons; assay type: cell-based
human Nav1.7 channels [5] = molecular target: T1, human Nav1.7 channels; assay: Activation / peak conductance protocol, automated patch-clamp; assay type: cell-based
human Nav1.7 channels [6] = molecular target: T1, human Nav1.7 channels; assay: Steady-state inactivation; assay type: cell-based
[7] = system: voltage-gated sodium (Nav) channels in rat CA1 hippocampal neurons; settings: cited from earlier work
[8] = system: TTX-sensitive Nav channels; settings: read-out: IC50 of TTX-sensitive channels; cited from earlier work

T1 sequence (Q15858 whole entry): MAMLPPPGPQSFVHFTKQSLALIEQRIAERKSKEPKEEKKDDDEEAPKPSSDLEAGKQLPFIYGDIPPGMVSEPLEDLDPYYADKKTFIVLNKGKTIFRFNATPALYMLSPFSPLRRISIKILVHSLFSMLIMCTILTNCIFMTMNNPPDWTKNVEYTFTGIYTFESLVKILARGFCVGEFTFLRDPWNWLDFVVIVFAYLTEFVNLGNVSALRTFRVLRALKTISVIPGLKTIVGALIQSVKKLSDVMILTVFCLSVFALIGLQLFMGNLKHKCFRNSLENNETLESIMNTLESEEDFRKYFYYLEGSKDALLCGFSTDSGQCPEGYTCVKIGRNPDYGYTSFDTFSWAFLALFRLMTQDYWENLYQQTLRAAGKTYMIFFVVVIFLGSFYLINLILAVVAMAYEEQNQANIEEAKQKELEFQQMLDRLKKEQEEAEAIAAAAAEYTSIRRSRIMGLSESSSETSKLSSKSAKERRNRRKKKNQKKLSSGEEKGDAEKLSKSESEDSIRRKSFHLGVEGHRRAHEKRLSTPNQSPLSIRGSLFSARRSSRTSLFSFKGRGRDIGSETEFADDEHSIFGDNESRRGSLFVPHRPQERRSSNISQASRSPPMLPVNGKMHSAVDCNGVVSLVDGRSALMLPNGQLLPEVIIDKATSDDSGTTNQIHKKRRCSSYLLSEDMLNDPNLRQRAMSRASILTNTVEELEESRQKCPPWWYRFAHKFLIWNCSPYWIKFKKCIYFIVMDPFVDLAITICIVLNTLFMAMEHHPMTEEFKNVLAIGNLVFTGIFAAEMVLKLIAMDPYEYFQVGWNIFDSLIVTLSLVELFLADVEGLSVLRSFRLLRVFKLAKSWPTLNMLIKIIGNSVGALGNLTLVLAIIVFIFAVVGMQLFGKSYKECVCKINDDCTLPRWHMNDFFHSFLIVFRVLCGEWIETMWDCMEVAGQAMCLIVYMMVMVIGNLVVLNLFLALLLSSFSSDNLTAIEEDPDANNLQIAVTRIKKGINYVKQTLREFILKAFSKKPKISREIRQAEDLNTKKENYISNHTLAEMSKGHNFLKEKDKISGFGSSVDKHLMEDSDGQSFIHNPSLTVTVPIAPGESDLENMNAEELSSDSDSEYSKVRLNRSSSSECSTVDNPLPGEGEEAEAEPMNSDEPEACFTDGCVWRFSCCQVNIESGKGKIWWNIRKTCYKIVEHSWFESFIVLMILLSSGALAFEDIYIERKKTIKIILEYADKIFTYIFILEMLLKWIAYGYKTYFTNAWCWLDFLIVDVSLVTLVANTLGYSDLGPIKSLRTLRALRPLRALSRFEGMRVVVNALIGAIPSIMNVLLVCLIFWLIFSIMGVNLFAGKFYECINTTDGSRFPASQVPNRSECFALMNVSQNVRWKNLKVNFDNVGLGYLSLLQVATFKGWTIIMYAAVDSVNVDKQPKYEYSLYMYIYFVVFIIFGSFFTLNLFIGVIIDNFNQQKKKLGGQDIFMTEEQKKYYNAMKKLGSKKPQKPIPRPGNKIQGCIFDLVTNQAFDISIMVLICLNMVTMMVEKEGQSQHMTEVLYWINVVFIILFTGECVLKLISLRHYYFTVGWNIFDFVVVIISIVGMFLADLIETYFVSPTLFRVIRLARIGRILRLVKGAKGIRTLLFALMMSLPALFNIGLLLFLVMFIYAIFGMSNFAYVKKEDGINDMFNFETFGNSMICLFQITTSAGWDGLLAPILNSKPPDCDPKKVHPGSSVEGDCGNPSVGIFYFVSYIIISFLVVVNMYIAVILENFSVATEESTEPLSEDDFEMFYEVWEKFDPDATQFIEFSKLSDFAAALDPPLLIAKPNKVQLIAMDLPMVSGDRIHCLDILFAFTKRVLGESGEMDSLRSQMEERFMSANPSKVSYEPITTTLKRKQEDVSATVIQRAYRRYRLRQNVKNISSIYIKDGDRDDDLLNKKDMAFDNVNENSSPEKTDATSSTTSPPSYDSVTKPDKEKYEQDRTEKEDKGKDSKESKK
T1 sequence (Q07699 19-218 partner): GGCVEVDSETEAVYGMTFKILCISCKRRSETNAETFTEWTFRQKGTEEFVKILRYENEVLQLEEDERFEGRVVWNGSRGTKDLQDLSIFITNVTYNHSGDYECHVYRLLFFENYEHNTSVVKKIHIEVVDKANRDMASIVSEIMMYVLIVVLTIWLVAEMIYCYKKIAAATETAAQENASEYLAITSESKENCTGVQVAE

Structure (SMILES): C=C(C)[C@@H]1CCC(C)=C[C@H]1c1c(O)cc(CCCCC)cc1O [CBD, cannabidiol]
- Concentration/fold state dependence (ratio) (Nav channels [1]): 1.1
- State dependence (Nav channels [2]; Table 1): ~10^a
- IC50 (Nav channels [2]; read-out: IC50 on Nav channels, Table 1): 1 to 12 µM
- State dependence (Nav channels [2]): ~ 10 fold

Structure (SMILES): CCCCCc1cc(O)c(C/C=C(\C)CCC=C(C)C)c(O)c1 [CBG, cannabigerol]
- Concentration/fold state dependence (ratio) (human Nav1.7 channels [3]): 2
- Fold less potent than CBD in inhibiting Nav channels (human Nav1.7 channels [3]): about 2 fold
- Hill slope (human Nav1.7 channels [3]): 1.2 ± 0.3 and 2.3 ± 0.5 and 1.6 ± 0.4
- Hill slopes (range across holding potentials) (human Nav1.7 channels [3]): 1.2–2.3
- Ki (human Nav1.7 channels [3]): 2 to 20 µM
- Nav channels prevented from opening (human Nav1.7 channels [3]): ~ 30%
- State dependence (human Nav1.7 channels [3]): ~10
- State dependence (inactivated vs resting state potency) (human Nav1.7 channels [3]): ~ 10 fold and ~ 11 fold
- average Hill-slope (human Nav1.7 channels [3]): ~ 2
- IC50 (human Nav1.7 channels [3]; IC50 (range across holding potentials), holding potentials −110 to −90 mV): 4.6 to 18.8 µM
- IC50 (human Nav1.7 channels [3]; IC50, holding potential −90 mV, pulse 180 (3 min), mean ± SEM): 4.6 ± 1.1 µM
- IC50 (human Nav1.7 channels [3]; IC50, holding potential −100 mV, pulse 180 (3 min), mean ± SEM): 9.3 ± 1 µM
- IC50 (human Nav1.7 channels [3]; IC50, holding potential −110 mV, pulse 180 (3 min), mean ± SEM): 18.8 ± 2.9 µM
- Inhibition of TTX-resistant current [4]: ~ 50%
- IC50 (human Nav1.7 channels [5]): ~3.5 µM
- Reduction in sodium current density (human Nav1.7 channels [5]): ~ 90%
- V1/2 of activation (human Nav1.7 channels [5]): −46.4 ± 5.6 mV
- Vehicle Gmax left (human Nav1.7 channels [5]): ~ 10%
- slope of activation (human Nav1.7 channels [5]): 5.2 ± 2.2
- Hyperpolarization of voltage dependence of SSI (human Nav1.7 channels [6]): ~ 12 mV
- Percentage shift of inactivation V1/2 relative to vehicle (human Nav1.7 channels [6]): about 25%
- Rate time constant of open-state inactivation vs vehicle (human Nav1.7 channels [6]): did not differ significantly
- IC50 (human Nav1.7 channels [6]; IC50 for V1/2 (inactivation shift), Hill fit of normalized data, estimated): ~13.2 µM
- inhibition at 15 µM (human Nav1.7 channels [6]; read-out: Inhibition of current at the test pulse): ~90%
- Effect on Nav current density and action potential frequency [7]: decreases current density

Structure (SMILES): NC1=N[C@H](O)[C@H]2[C@H]3O[C@]4(O)O[C@@H]([C@@H](O)[C@@]2(N1)[C@@H]4O)[C@]3(O)CO [TTX, tetrodotoxin]
- IC50 [8]: 0.01 to 0.03 µM

From publication PMC13012276 (British journal of pharmacology, 2022)
